Data on eleven compounds can be found in ChEMBL document CHEMBL1201862, “PubChem BioAssay data set” (2004).

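In this assay, cells in 96-well plates receive the compound at five concentrations for 48 hours. Endpoints are linearly interpolated between the surrounding concentrations. Abbreviation: GI50, concentration required for 50% inhibition of growth.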 Active and inactive are the calls of the source. No stated cut-off is given here; in the data, active = GI50 up to about 1.1 µM and inactive = higher.

Among the test systems are A498; ACHN; BT-549; CAKI-1; DU-145; EKVX; HCC 2998; HOP-62; IGROV-1; MDA-N; NCI-H23; NCI-H522; NCI/ADR-RES; OVCAR-3; OVCAR-8; RXF 393; SF-295; SNB-19; SNB-75.
Assay in all cases: DTP human tumour cell line panel, 48 h

A word on the GI50: it is the concentration that inhibits growth by half. With `COc1ccc2c3c1OC1C34CCN(C)C(C2)C4=CC(I)C1(OC)OC` (stereo unspecified), the GI50 with A498 is 22.9 µM (inactive); with ACHN, 11.3 µM (inactive); with BT-549, 21.6 µM (inactive); in the test with CAKI-1, 12.9 µM (inactive); in the test on DU-145, 10.8 µM (inactive); in the test with EKVX, 14.4 µM (inactive). Moreover, the GI50 in the test with HCC 2998 is 10.2 µM (inactive); with HOP-62, 8.77 µM (inactive); in the test on IGROV-1, 8.71 µM (inactive); with MDA-N, 6.14 µM (inactive); in the test on NCI-H23 it was 7.41 µM (inactive); with NCI-H522 it was 5.27 µM (inactive). Moreover, the GI50 with NCI/ADR-RES is 41.5 µM (inactive); with OVCAR-3 it was 5.87 µM (inactive); in the test on OVCAR-8 it was 4.09 µM (inactive); in the test with RXF 393 it was 10.5 µM (inactive); in the test with SF-295, 41.5 µM (inactive); in the test on SNB-19, 16.2 µM (inactive). In the test with SNB-75, the GI50 was 19.6 µM (inactive).

For the compound `CCCCCCCCCCCCCCCCCCNc1nc(=O)n(C2CC(O)C(COP(=O)(O)OCC3OC(n4ccc(N)nc4=O)C(O)C3O)O2)cc1F` (stereo unspecified), the GI50 is 17.2 µM (inactive) with A498; 18.7 µM (inactive) with ACHN; 31.1 µM (inactive) in the test with BT-549; 92.5 µM (inactive) in the test on CAKI-1; 25.1 µM (inactive) in the test on DU-145; > 100 µM (inactive) in the test on EKVX. The GI50 in the test on HCC 2998 was 11.8 µM (inactive); with HOP-62, 18.7 µM (inactive); with IGROV-1 it was 30.3 µM (inactive); in the test on MDA-N, > 100 µM (inactive); with NCI-H23 it was 16 µM (inactive); in the test on NCI-H522, 3.8 µM (inactive). The GI50 in the test on NCI/ADR-RES was 17.9 µM (inactive); with OVCAR-3 it was > 100 µM (inactive); in the test on OVCAR-8 it was 4.13 µM (inactive); in the test with RXF 393, > 100 µM (inactive); with SF-295 it was > 100 µM (inactive); in the test on SNB-19, 10.6 µM (inactive). The GI50 in the test on SNB-75 was > 100 µM (inactive).

Regarding `CC(C)(C)c1ccc(S(=O)(=O)N2C(c3cccc(C4CC[C@@H](C(=O)O)N4S(=O)(=O)c4ccc(C(C)(C)C)cc4)c3)CC[C@H]2C(=O)O)cc1` (stereo partly specified), the GI50 with A498 is > 100 µM (inactive); in the test on ACHN, 57.4 µM (inactive); with BT-549, 50 µM (inactive); in the test on CAKI-1, 42.5 µM (inactive); in the test with DU-145 it was 75.3 µM (inactive); with EKVX it was 30.1 µM (inactive). Further, the GI50 in the test with HCC 2998 was 47.4 µM (inactive); in the test on HOP-62 it was 98.4 µM (inactive); in the test on IGROV-1, 33.5 µM (inactive); with MDA-N, 55.2 µM (inactive); in the test with NCI-H23, 40.2 µM (inactive); with NCI-H522 it was 38.7 µM (inactive). Besides, the GI50 was > 100 µM (inactive) with NCI/ADR-RES; 28 µM (inactive) with OVCAR-3; 67.5 µM (inactive) in the test on OVCAR-8; 30.1 µM (inactive) in the test with RXF 393; 45.8 µM (inactive) in the test on SF-295; 59.3 µM (inactive) in the test on SNB-19. In addition, in the test on SNB-75, the GI50 was > 100 µM (inactive).

As to `CC(O)(c1ccccc1)c1nccc2ccccc12` (stereo unspecified), the GI50 is 71.4 µM (inactive) in the test on A498; > 100 µM (inactive) in the test on ACHN; 56.1 µM (inactive) in the test on BT-549; > 100 µM (inactive) in the test with CAKI-1; > 100 µM (inactive) with DU-145; > 100 µM (inactive) with HCC 2998. Besides, the GI50 is > 100 µM (inactive) in the test with HOP-62; 37.8 µM (inactive) with IGROV-1; 23.4 µM (inactive) in the test with MDA-N; > 100 µM (inactive) in the test with NCI-H23; 50.5 µM (inactive) with NCI-H522; 43.7 µM (inactive) with NCI/ADR-RES. In addition, the GI50 is 57.9 µM (inactive) in the test with OVCAR-3; > 100 µM (inactive) with OVCAR-8; > 100 µM (inactive) with RXF 393; 55 µM (inactive) with SF-295; > 100 µM (inactive) in the test on SNB-19; 53.7 µM (inactive) in the test on SNB-75.

For the compound `Cc1cc(-c2nc3ccccc3s2)ccc1NC(=O)[C@H](C)N`, the GI50 in the test with A498 is 14.4 µM (inactive); with ACHN, 13.6 µM (inactive); in the test on BT-549, 15.7 µM (inactive); in the test with CAKI-1 it was 11.3 µM (inactive); with DU-145, 15.3 µM (inactive); in the test with HCC 2998, 10.6 µM (inactive). The GI50 in the test with HOP-62 was 13.8 µM (inactive); in the test on IGROV-1, 4.38 µM (inactive); in the test with MDA-N, 10.4 µM (inactive); in the test on NCI-H23 it was 16.5 µM (inactive); in the test on NCI-H522 it was 24.2 µM (inactive); in the test on NCI/ADR-RES it was 18.3 µM (inactive). The GI50 with OVCAR-3 was 11.4 µM (inactive); with OVCAR-8, 17.9 µM (inactive); in the test on RXF 393 it was 12.3 µM (inactive); in the test on SF-295 it was 15.3 µM (inactive); with SNB-19, 15.1 µM (inactive); with SNB-75, 12.5 µM (inactive).

Regarding `Cc1ccc(S(=O)(=O)N/N=C/C2(c3ccccc3)c3ccccc3-c3ccccc32)cc1`, the GI50 was 18.6 µM (inactive) in the test on A498; 4.94 µM (inactive) in the test on ACHN; 14.2 µM (inactive) with BT-549; 12.6 µM (inactive) with CAKI-1; 12.1 µM (inactive) in the test with DU-145; 8.95 µM (inactive) in the test on EKVX. Besides, the GI50 with HCC 2998 was 13.3 µM (inactive); in the test with HOP-62, 17.7 µM (inactive); with IGROV-1, 10.5 µM (inactive); in the test on MDA-N, 4.28 µM (inactive); in the test on NCI-H23, 15.5 µM (inactive); with NCI-H522, 13 µM (inactive). Further, the GI50 in the test with NCI/ADR-RES is 7.94 µM (inactive); in the test with OVCAR-3, 7.71 µM (inactive); in the test with OVCAR-8, 8.97 µM (inactive); in the test on RXF 393, 13 µM (inactive); in the test on SF-295, 3.21 µM (inactive); in the test on SNB-19 it was 18.7 µM (inactive).

For `Cc1occc1C(=S)Nc1ccc(Cl)c(C(=O)OC(C(C)C)C(C)C)c1`, the GI50 was 13.6 µM (inactive) with A498; 12.1 µM (inactive) in the test on ACHN; 16.6 µM (inactive) with BT-549; 17.1 µM (inactive) in the test with CAKI-1; 13.7 µM (inactive) with DU-145; 8 µM (inactive) with EKVX. Besides, the GI50 with HCC 2998 is 9.23 µM (inactive); with HOP-62, 17.2 µM (inactive); with IGROV-1 it was 15.2 µM (inactive); in the test with MDA-N it was 12.1 µM (inactive); in the test on NCI-H23 it was 8.15 µM (inactive); in the test on NCI-H522, 11.8 µM (inactive). Moreover, the GI50 in the test with NCI/ADR-RES is 9.98 µM (inactive); in the test with OVCAR-3, 13.4 µM (inactive); in the test on OVCAR-8 it was 13.3 µM (inactive); in the test on RXF 393, 13.3 µM (inactive); in the test on SF-295, 5.47 µM (inactive); in the test on SNB-19, 21.3 µM (inactive).

Consider `CC(=O)NNC(=S)N/C=C1/C(=O)Oc2ccccc2C1=O`, for which the GI50 in the test with A498, in the test on ACHN, in the test on BT-549, in the test on CAKI-1, in the test on DU-145 and in the test with HCC 2998 was > 100 µM (inactive) in each case. In addition, the GI50 in the test with HOP-62, with IGROV-1, with MDA-N, in the test with NCI-H23, with NCI-H522 and in the test with NCI/ADR-RES was > 100 µM (inactive) in each case. Further, the GI50 was > 100 µM (inactive) with OVCAR-3; > 100 µM (inactive) in the test with OVCAR-8; 0.0703 µM (active) in the test with RXF 393; > 100 µM (inactive) in the test with SF-295; > 100 µM (inactive) with SNB-19; > 100 µM (inactive) with SNB-75.

In the case of `Cc1nnc2n1N=C(c1cc(F)c(Cl)cc1Cl)/C(=C/c1ccc(Cl)cc1)S2`, the GI50 in the test with A498 is 19.1 µM (inactive); in the test with ACHN, 16.5 µM (inactive); in the test with BT-549, 18.7 µM (inactive); in the test with CAKI-1, 10.1 µM (inactive); in the test on DU-145, 17.1 µM (inactive); in the test with EKVX, 9.42 µM (inactive). In addition, the GI50 in the test with HCC 2998 is 13.4 µM (inactive); in the test with HOP-62, 15.7 µM (inactive); in the test with IGROV-1, 19.6 µM (inactive); with MDA-N, 15.8 µM (inactive); with NCI-H23 it was 14.5 µM (inactive); in the test on NCI-H522, 20.7 µM (inactive). The GI50 is 11.8 µM (inactive) in the test on NCI/ADR-RES; 12.7 µM (inactive) in the test with OVCAR-3; 16.1 µM (inactive) in the test with OVCAR-8; 17.2 µM (inactive) in the test with RXF 393; 13.4 µM (inactive) with SF-295; 23.7 µM (inactive) with SNB-19.

For the compound `O=C(O)COc1c(Cl)cc(Cl)c2cccnc12`, the GI50 in the test with A498, in the test with ACHN, in the test with BT-549, in the test with CAKI-1, in the test on DU-145 and in the test with EKVX was > 100 µM (inactive) throughout. The GI50 is > 100 µM (inactive) in the test with HOP-62; 96.4 µM (inactive) with IGROV-1; > 100 µM (inactive) in the test on MDA-N; > 100 µM (inactive) in the test with NCI-H23; > 100 µM (inactive) in the test on NCI-H522; > 100 µM (inactive) with NCI/ADR-RES. Besides, the GI50 in the test with OVCAR-3, in the test with OVCAR-8, in the test on RXF 393, in the test on SF-295, in the test with SNB-19 and in the test on SNB-75 was > 100 µM (inactive) each time.

Take `Fc1cccc2nc(-c3ccccc3)cc(OCc3ccccc3)c12`: the GI50 with A498 is > 100 µM (inactive); with ACHN, > 100 µM (inactive); with BT-549, > 100 µM (inactive); in the test on DU-145, > 100 µM (inactive); with EKVX it was 20.8 µM (inactive); in the test with HCC 2998, > 100 µM (inactive). Also, the GI50 with HOP-62 is > 100 µM (inactive); in the test with IGROV-1, > 100 µM (inactive); in the test with MDA-N it was > 100 µM (inactive); with NCI-H23, > 100 µM (inactive); with NCI-H522, 71.8 µM (inactive); in the test with NCI/ADR-RES, > 100 µM (inactive). Moreover, the GI50 with OVCAR-3 is > 100 µM (inactive); in the test with OVCAR-8, > 100 µM (inactive); in the test with RXF 393 it was 69.5 µM (inactive); in the test on SF-295 it was > 100 µM (inactive); in the test with SNB-19, > 100 µM (inactive); in the test on SNB-75, 65.6 µM (inactive).
